Results reported in article PMC6407917, “Identification of GSK3186899/DDD853651 as a Preclinical Development Candidate for the Treatment of Visceral Leishmaniasis” (Journal of Medicinal Chemistry, 2018).

Tests used:
Assay in all cases: biochemical
Parameters in all cases: species or system HEK293/K-562/placenta mixed human extract; Kinobeads chemoproteomic competition binding, quantified by TMT LC-MS/MS, dose response up to 20 uM
[1] = target: BRSK2 (Homo sapiens, UniProt Q8IWQ3)
[2] = target: CSNK1D (Homo sapiens, UniProt P48730)
[3] = target: AURKB (Homo sapiens, UniProt Q96GD4)
AURKB, sequence (Q96GD4 whole entry): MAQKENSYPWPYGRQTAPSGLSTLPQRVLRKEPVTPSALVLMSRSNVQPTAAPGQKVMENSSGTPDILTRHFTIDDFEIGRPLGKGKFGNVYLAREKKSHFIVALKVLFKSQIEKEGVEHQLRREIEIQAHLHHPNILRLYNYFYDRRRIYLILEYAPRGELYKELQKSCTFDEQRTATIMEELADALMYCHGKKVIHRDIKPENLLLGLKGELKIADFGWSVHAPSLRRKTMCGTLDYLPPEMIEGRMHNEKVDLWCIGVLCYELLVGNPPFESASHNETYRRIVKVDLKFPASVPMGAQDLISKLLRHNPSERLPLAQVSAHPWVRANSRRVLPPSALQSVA

[4] = target: CHEK2 (Homo sapiens, UniProt O96017)
CHEK2, sequence (O96017 whole entry): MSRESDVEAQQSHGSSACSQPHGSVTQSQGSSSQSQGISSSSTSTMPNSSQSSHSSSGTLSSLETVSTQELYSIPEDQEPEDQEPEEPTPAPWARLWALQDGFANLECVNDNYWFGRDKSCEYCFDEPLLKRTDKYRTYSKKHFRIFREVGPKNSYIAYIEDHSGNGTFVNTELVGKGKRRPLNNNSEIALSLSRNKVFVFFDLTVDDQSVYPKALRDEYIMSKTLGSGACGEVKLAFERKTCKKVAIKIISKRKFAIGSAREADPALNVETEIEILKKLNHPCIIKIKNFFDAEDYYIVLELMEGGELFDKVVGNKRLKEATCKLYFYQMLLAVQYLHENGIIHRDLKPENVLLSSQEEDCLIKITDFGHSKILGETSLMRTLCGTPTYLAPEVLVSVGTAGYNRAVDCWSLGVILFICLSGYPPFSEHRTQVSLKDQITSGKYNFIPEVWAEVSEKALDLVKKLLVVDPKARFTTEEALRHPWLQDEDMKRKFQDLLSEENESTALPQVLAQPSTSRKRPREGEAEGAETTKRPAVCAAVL

[5] = target: TYRO3 (Homo sapiens, UniProt Q06418)
[6] = target: PIM2 (Homo sapiens, UniProt Q9P1W9)
[7] = target: IRAK3 (Homo sapiens, UniProt Q9Y616)
[8] = target: DSTYK (Homo sapiens, UniProt Q6XUX3)
DSTYK, sequence (Q6XUX3 whole entry): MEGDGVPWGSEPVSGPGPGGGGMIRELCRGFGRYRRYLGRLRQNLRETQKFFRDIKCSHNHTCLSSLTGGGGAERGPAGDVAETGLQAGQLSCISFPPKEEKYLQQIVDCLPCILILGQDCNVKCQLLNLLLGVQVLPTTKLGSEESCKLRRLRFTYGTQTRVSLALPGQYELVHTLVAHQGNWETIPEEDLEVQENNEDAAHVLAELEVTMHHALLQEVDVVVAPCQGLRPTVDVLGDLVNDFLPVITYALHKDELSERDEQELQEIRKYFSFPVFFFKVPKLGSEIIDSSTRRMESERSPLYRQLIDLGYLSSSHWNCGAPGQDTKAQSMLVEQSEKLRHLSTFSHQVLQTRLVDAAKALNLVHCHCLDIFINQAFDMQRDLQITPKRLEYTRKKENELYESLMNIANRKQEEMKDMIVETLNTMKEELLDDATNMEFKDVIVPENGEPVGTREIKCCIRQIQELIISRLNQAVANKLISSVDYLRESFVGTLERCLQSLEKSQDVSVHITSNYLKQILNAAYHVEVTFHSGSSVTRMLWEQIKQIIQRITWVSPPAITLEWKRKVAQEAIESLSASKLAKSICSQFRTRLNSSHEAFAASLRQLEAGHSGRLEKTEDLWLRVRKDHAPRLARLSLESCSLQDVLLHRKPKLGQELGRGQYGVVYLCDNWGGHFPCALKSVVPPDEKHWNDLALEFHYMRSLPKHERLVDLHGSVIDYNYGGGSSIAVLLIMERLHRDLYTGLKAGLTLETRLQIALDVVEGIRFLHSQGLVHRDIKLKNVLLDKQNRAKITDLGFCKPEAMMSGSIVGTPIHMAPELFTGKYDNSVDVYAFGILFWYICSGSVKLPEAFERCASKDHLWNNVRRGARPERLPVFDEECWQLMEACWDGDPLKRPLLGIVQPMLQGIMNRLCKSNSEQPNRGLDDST

[9] = target: MAP3K13 (Homo sapiens, UniProt O43283)
[10] = target: SGK3 (Homo sapiens, UniProt Q96BR1)
[11] = target: PRKACA (Homo sapiens, UniProt P17612)
[12] = target: MAST3 (Homo sapiens, UniProt O60307)
MAST3, sequence (O60307 whole entry): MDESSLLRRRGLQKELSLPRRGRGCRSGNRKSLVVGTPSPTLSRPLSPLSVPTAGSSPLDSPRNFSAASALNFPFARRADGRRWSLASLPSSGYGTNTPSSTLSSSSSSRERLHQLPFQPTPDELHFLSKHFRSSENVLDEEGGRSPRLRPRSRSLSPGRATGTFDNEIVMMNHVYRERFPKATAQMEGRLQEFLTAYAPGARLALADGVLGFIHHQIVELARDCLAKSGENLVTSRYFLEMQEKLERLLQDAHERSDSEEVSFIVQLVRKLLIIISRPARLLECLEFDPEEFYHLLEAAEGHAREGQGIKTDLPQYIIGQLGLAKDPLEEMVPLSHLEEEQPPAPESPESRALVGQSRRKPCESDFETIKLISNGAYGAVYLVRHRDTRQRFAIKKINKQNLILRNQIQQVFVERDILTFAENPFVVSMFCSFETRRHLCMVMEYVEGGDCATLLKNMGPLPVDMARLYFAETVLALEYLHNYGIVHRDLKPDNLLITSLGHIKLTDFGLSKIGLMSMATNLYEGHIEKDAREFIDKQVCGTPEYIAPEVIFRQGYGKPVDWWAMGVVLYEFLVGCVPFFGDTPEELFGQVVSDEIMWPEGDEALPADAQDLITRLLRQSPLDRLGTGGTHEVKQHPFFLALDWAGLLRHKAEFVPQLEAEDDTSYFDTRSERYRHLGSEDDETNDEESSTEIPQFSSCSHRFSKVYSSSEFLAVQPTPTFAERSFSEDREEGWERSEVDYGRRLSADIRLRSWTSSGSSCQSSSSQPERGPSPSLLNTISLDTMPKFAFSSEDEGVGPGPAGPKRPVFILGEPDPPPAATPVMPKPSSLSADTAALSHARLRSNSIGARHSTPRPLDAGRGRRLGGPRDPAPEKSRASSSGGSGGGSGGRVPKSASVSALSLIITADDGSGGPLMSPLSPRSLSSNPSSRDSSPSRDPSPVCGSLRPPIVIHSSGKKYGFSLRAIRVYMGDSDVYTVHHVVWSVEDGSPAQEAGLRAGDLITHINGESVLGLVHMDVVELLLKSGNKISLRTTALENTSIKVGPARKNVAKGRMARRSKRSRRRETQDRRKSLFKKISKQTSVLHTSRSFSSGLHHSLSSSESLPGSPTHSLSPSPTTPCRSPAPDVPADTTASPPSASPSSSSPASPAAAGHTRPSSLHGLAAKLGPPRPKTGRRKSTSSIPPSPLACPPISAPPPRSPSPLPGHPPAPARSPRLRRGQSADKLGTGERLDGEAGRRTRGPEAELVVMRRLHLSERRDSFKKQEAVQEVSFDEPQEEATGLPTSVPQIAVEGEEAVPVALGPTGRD

[13] = target: MAPK9 (Homo sapiens, UniProt P45984)
[14] = target: NRK (Homo sapiens, UniProt Q7Z2Y5)
[15] = target: PRKCQ (Homo sapiens, UniProt Q04759)
[16] = target: MYLK (Homo sapiens, UniProt Q15746)
[17] = target: MAP3K5 (Homo sapiens, UniProt Q99683)
MAP3K5, sequence (Q99683 whole entry): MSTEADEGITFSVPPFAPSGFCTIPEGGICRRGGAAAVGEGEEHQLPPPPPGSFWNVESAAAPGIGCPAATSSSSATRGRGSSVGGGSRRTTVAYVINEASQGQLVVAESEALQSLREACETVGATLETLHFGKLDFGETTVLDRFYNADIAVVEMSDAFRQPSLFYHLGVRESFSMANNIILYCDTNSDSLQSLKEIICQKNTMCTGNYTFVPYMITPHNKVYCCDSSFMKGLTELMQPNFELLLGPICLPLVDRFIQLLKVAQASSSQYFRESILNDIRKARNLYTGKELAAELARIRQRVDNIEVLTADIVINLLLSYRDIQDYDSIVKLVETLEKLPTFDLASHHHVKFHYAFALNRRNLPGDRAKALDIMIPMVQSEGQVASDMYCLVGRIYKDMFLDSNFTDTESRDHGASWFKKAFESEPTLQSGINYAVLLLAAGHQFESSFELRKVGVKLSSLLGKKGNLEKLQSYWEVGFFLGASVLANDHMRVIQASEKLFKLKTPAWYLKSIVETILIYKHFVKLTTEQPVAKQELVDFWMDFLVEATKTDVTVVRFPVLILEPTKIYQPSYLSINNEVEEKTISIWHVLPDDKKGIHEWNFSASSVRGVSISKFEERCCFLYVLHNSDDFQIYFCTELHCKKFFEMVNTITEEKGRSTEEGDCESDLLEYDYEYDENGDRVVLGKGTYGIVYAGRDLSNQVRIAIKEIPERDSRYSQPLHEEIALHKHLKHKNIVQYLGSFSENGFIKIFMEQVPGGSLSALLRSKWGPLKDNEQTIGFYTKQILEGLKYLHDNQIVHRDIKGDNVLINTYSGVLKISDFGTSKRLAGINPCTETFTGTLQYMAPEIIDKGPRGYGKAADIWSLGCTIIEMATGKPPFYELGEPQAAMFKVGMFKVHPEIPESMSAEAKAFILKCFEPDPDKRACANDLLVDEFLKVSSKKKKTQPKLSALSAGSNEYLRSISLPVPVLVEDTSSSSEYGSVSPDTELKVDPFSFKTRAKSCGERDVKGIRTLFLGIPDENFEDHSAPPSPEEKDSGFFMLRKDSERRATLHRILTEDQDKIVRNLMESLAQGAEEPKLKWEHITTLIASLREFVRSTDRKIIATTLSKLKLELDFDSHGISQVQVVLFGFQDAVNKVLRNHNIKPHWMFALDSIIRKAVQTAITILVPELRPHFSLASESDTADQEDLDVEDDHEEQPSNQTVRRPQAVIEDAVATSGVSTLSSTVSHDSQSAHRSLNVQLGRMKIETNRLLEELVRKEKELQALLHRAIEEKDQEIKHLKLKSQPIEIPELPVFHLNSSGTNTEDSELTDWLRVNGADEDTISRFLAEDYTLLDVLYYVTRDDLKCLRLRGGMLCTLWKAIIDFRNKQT

[18] = target: STK39 (Homo sapiens, UniProt Q9UEW8)
[19] = target: PIM3 (Homo sapiens, UniProt Q86V86)
[20] = target: FGR (Homo sapiens, UniProt P09769)
[21] = target: YES1 (Homo sapiens, UniProt P07947)
YES1, sequence (P07947 whole entry): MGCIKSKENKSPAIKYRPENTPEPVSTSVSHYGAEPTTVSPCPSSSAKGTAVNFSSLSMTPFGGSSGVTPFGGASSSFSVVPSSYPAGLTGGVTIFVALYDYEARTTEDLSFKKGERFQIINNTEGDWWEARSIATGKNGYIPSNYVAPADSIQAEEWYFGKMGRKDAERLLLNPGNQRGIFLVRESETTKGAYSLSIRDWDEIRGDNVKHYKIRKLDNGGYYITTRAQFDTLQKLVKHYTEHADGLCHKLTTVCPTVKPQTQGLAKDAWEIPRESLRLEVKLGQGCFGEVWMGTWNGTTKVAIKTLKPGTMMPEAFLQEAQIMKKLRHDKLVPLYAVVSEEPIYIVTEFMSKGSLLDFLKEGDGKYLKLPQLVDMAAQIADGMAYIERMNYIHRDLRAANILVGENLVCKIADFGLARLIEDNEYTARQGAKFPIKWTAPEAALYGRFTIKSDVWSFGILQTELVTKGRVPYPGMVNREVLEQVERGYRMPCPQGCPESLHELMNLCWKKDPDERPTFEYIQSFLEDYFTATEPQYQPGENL

Measured: IC50

COc1nc(N[C@H]2CC[C@H](NS(=O)(=O)CC(C)C)CC2)nc2[nH]nc(N3CCOC[C@H]3C)c12 [compound 39, N-(trans-4-((4-Methoxy-3-((R)-3-methylmorpholino)-1H-pyrazolo[3,4-d]pyrimidin-6-yl)amino)cyclohexyl)-2-methylpropane-1-sulfonamide]
≥ 20 µM: all assays above
